Data: patent US9212204B2, “Treatment of rett syndrome using glycyl-L-2-methylprolyl-L-glutamic acid” (priority 2011, dated 2015)
Non-standard residues stand in square brackets, D forms with d. Residues, ends and D or L forms follow the SMILES beside them. αMeP = C[C@@]1(C(=O)O)CCCN1

How the values were obtained:
[1] = Pharmacokinetics after intravenous bolus injection; type: in vivo, rat
Description: Adult male Wistar rats weighing between 180 and 240 g were used to determine the pharmacokinetics of GPE and […]. To facilitate intravenous bolus injections and blood sampling, all rats were surgically implanted with an indwelling jugular venous cannula under halothane anesthesia three days before the experiment. Groups of six rats were given a single intravenous bolus injection of either 30 mg/kg GPE or 10 mg/kg […] dissolved in 0.1M succinate buffer (pH 6.5). […] The samples were centrifuged at 3000 g for 15 min at 4° C. and the plasma removed and stored at -80° C. until extraction and assay by either radioimmunoassay (“RIA”) or reverse phase HPLC. The RIA and HPLC methods used were conventional. […] The k and half-life (t1/2) were calculated from the slope of the linear regression line in the elimination phase of the semi-logarithmic plot of plasma concentration versus time as: Log. C=-kt/2.3+log C0. Results were expressed as mean±standard error.

[2] = test system: layer 5 cortical neurons of MeCP2-/y mice; test: Whole-cell recordings of spontaneous EPSCs in acute brain slices; type: in vivo, mouse; conditions: 20 mg/kg i.p. daily P15 to P28-P32; vs MeCP2-/y mice treated with vehicle
Description: For the survival measurements, the nocturnal activity analysis and the immunoblot analysis, G-2-MePE (synthesised Albany Molecular Research Inc. (Albany, N.Y.) and supplied by Neuren Pharmaceuticals Limited) is administered daily via intra-peritoneal injections (20 mg/kg, vehicle=saline, 0.01% BSA). The treatment starts at PI 5 and is maintained throughout the course of the experiments. For intracellular physiology experiments, the mice are injected daily with G-2-MePE (20 mg/kg body weight, vehicle=saline, 0.01% BSA) for 2 weeks, from P15 to P28-P32 when they are used for acute slice preparation. For optical imaging experiments, mice are injected with G-2-MePE (20 mg/kg body weight, vehicle=saline, 0.01% BSA) daily from the day of the lid suture to the day of imaging. […]
Borosilicate pipettes (3-5 MΩ, WP1) are pulled using a Sutter P-80 puller (Sutter Instruments). Cells are visualized with an Achroplan 40× water-immersion lens with infrared-DIC optics (Zeiss) and detected with an infrared camera (Hamamatsu) projecting to a video monitor. […] Then in current clamp ˜10 pulses (500 ms, 40-140 pA at 10 pA increments), are applied to quantify evoked firing rates and cellular excitability. […] Analysis is performed using a custom software package written in Matlab, with all events detected according to automated thresholds and blindly verified for each event individually by the experimenter. […]

Compound: C[C@@]1(C(=O)N[C@@H](CCC(=O)O)C(=O)O)CCCN1C(=O)CN [Example G-2-MePE, Glycyl-L-2-methylprolyl-L-glutamic acid] (H-Gly-[αMeP]-Glu-OH)
- first order rate constant ([1]; 10 mg/kg single i.v. bolus, rat): 0.033 ± 0.001 min⁻¹
- maximal plasma concentration relative to GPE ([1]; G-2-MePE 10 mg/kg vs GPE 30 mg/kg i.v.): about 4.8 times
- t1/2 relative to GPE ([1]; i.v., rat): over 4 times
- spontaneous EPSC amplitude [2]: significantly larger
